The results in this text go back to ChEMBL document CHEMBL1201862, “PubChem BioAssay data set” (2004).

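Tested at 5 concentrations; 48 h exposure; 96-well plates; endpoints linearly interpolated, else capped at highest concentration. Here, GI50 denotes the concentration required for 50% inhibition of growth.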 Calls of active or inactive are those of the source. Cut-off read from the data, not from the text of the source: active = GI50 up to about 1.1 µM and inactive = higher.

Among the test systems are A498; A549; CCRF-CEM; HCT-116; HOP-92; KM12; M14; MCF7; MDA-MB-231; NCI-H23; OVCAR-5; OVCAR-8; RPMI-8226; SF-539; SK-MEL-28; SK-MEL-2; SNB-19; SR; SW-620; TK-10.
Assay in all cases: growth of human tumour cells (NCI), 48 h

As for `COc1cc(Oc2nc3c(N)cc(C(F)(F)F)cc3nc2-c2ccccc2)cc(OC)c1OC`, the GI50 in the experiment with A498 was 7.89 µM (inactive); with A549, 5 µM (inactive); with CCRF-CEM, 4.9 µM (inactive); in the experiment on HCT-116, 2.34 µM (inactive); in the experiment on HOP-92, 14.7 µM (inactive); with KM12, 2.17 µM (inactive). Further, the GI50 in the experiment with M14 is 5.81 µM (inactive); with MCF7, 3.17 µM (inactive); in the experiment with MDA-MB-231, 10.2 µM (inactive); in the experiment on NCI-H23, 2.82 µM (inactive); in the experiment with OVCAR-5, 31.3 µM (inactive); with OVCAR-8, 4.91 µM (inactive). Further, the GI50 in the experiment with RPMI-8226 was 2.45 µM (inactive); in the experiment with SF-539 it was 3.4 µM (inactive); in the experiment with SK-MEL-28, 14.8 µM (inactive); in the experiment on SK-MEL-2, 3.24 µM (inactive); in the experiment on SNB-19, 3.17 µM (inactive); in the experiment on SR, 0.624 µM (active). Besides, the GI50 with SW-620 is 3.07 µM (inactive); in the experiment with TK-10, 26.1 µM (inactive).

With `O=CN/C=C/c1cccc(O)c1`, the GI50 in the experiment with A498 was > 64.3 µM (inactive); with A549 it was 54.5 µM (inactive); with CCRF-CEM, 61.1 µM (inactive); with HCT-116 it was 52.7 µM (inactive); in the experiment with HOP-92 it was 55.2 µM (inactive); in the experiment on KM12, 62.4 µM (inactive). The GI50 in the experiment with M14 was 61.9 µM (inactive); in the experiment on MCF7, > 34 µM (inactive); in the experiment on MDA-MB-231 it was 49.8 µM (inactive); in the experiment with NCI-H23, 52.4 µM (inactive); in the experiment on OVCAR-5, 74.6 µM (inactive); in the experiment on OVCAR-8, 54.1 µM (inactive). For the same compound, the GI50 is > 71.9 µM (inactive) in the experiment with RPMI-8226; 57.3 µM (inactive) in the experiment on SF-539; > 84.1 µM (inactive) in the experiment with SK-MEL-28; 58.7 µM (inactive) in the experiment with SK-MEL-2; 70.1 µM (inactive) in the experiment on SNB-19; > 43.7 µM (inactive) in the experiment with SR. Further, the GI50 was 69.7 µM (inactive) in the experiment on SW-620 and 88.3 µM (inactive) with TK-10.

For the compound `COc1cc(C2SCC(=O)N2c2ccccn2)cc(OC)c1OC` (stereo not given), the GI50 in the experiment on A498 is > 100 µM (inactive); in the experiment on A549, > 100 µM (inactive); in the experiment with CCRF-CEM it was > 100 µM (inactive); with HCT-116 it was 79.6 µM (inactive); in the experiment on HOP-92, 14.2 µM (inactive); in the experiment with KM12, 62.1 µM (inactive). In addition, the GI50 with M14 is > 100 µM (inactive); in the experiment with MCF7, 49.2 µM (inactive); in the experiment with MDA-MB-231, > 100 µM (inactive); in the experiment with NCI-H23, > 100 µM (inactive); in the experiment with OVCAR-5 it was > 100 µM (inactive); in the experiment on OVCAR-8, > 100 µM (inactive). Further, the GI50 in the experiment with RPMI-8226 was 91 µM (inactive); with SF-539, 65 µM (inactive); in the experiment with SK-MEL-28, > 100 µM (inactive); in the experiment with SK-MEL-2, > 100 µM (inactive); in the experiment on SNB-19 it was > 100 µM (inactive); with SR, 31.6 µM (inactive). Further, the GI50 in the experiment with SW-620 is 76 µM (inactive); in the experiment with TK-10 it was > 100 µM (inactive).

`CCNC(=S)NNC(=O)CSc1nc2ccc(I)cc2c(=O)n1Cc1ccccc1`: the GI50 is 14.5 µM (inactive) with A498; 25.5 µM (inactive) in the experiment with A549; 7.98 µM (inactive) in the experiment on CCRF-CEM; 6.5 µM (inactive) in the experiment with HCT-116; 17.3 µM (inactive) in the experiment with HOP-92; 8.77 µM (inactive) with KM12. Besides, the GI50 in the experiment on M14 was 38.4 µM (inactive); with MCF7, 16.9 µM (inactive); with MDA-MB-231 it was 41.5 µM (inactive); in the experiment on NCI-H23, 21.6 µM (inactive); in the experiment with OVCAR-5, > 100 µM (inactive); with OVCAR-8, 22 µM (inactive). The GI50 is 14.8 µM (inactive) in the experiment with RPMI-8226; 45.8 µM (inactive) in the experiment with SF-539; 63.8 µM (inactive) in the experiment on SK-MEL-28; 29.4 µM (inactive) in the experiment on SK-MEL-2; > 87.5 µM (inactive) with SNB-19; 7.43 µM (inactive) in the experiment with SR. Further, the GI50 was 37.8 µM (inactive) in the experiment with SW-620 and > 51.2 µM (inactive) in the experiment on TK-10.

Turning to `COc1cccc(C(=O)N[C@@H]2[C@H](O)[C@@H](CO)O[C@H]2n2cnc3c(N)ncnc32)c1`, the GI50 with A498, with A549, in the experiment on CCRF-CEM, in the experiment with HCT-116, in the experiment with HOP-92 and with KM12 was > 100 µM (inactive) throughout. Further, the GI50 in the experiment with M14, in the experiment with MCF7, in the experiment with MDA-MB-231, with NCI-H23, in the experiment with OVCAR-5 and in the experiment with OVCAR-8 was > 100 µM (inactive) throughout. The GI50 in the experiment on RPMI-8226, in the experiment on SF-539, in the experiment on SK-MEL-28, in the experiment with SK-MEL-2, in the experiment with SNB-19 and in the experiment on SR was > 100 µM (inactive) in each case. The GI50 in the experiment with SW-620 and in the experiment on TK-10 was > 100 µM (inactive) each time.

As for `COc1ccc2nc3ccc(OC)cc3c([S+]([O-])CCCl)c2c1` (stereo not given), the GI50 in the experiment on A498 is 16.8 µM (inactive); in the experiment on A549 it was 20.9 µM (inactive); with CCRF-CEM, 2.42 µM (inactive); in the experiment on HCT-116, 1.83 µM (inactive); in the experiment on HOP-92, 2.49 µM (inactive); in the experiment on KM12, 16.6 µM (inactive). Moreover, the GI50 in the experiment with M14 is 3.52 µM (inactive); with MCF7 it was 2.31 µM (inactive); in the experiment on MDA-MB-231, 5.87 µM (inactive); in the experiment on NCI-H23 it was 4.26 µM (inactive); in the experiment on OVCAR-5, 14.9 µM (inactive); in the experiment with OVCAR-8, 2.67 µM (inactive). Also, the GI50 in the experiment on RPMI-8226 was 2.11 µM (inactive); in the experiment on SF-539, 1.72 µM (inactive); in the experiment with SK-MEL-28 it was 3.73 µM (inactive); in the experiment with SK-MEL-2, 17.7 µM (inactive); in the experiment on SNB-19 it was 22.5 µM (inactive); with SR, 2.67 µM (inactive). Moreover, the GI50 was 3.3 µM (inactive) in the experiment with SW-620 and 3.81 µM (inactive) in the experiment on TK-10.

Take `O=C(O)c1cc(-c2ccc(-c3ccccc3)cc2)nc2cc3ccccc3cc12`: the GI50 with A498 is > 100 µM (inactive); in the experiment with A549 it was 19.8 µM (inactive); in the experiment on CCRF-CEM, 5.21 µM (inactive); with HCT-116, 31.3 µM (inactive); with HOP-92, 28.2 µM (inactive); in the experiment on KM12 it was 34.3 µM (inactive). The GI50 with M14 was > 100 µM (inactive); in the experiment with MCF7, > 100 µM (inactive); in the experiment with MDA-MB-231, 21.2 µM (inactive); in the experiment with NCI-H23, 36.8 µM (inactive); in the experiment on OVCAR-5, > 100 µM (inactive); in the experiment with OVCAR-8 it was 57.1 µM (inactive). Also, the GI50 in the experiment on RPMI-8226 is 29.6 µM (inactive); in the experiment on SF-539, 31.2 µM (inactive); with SK-MEL-28, 87.5 µM (inactive); in the experiment on SK-MEL-2, 82 µM (inactive); with SNB-19 it was 35.6 µM (inactive); with SR, 5.43 µM (inactive). The GI50 with SW-620 is 40.4 µM (inactive); in the experiment with TK-10 it was 58.2 µM (inactive).

With `CSC1=C(C)C(/C=N/Nc2ccc([N+](=O)[O-])cc2)=C(C)N(c2ccccc2)S1(=O)=O`, the GI50 was > 100 µM (inactive) in the experiment with A498; 36.3 µM (inactive) with A549; > 100 µM (inactive) with CCRF-CEM; 6.47 µM (inactive) with HCT-116; > 100 µM (inactive) with HOP-92; 26.5 µM (inactive) with KM12. Moreover, the GI50 in the experiment on M14 was 38.6 µM (inactive); in the experiment on MCF7 it was 32.4 µM (inactive); in the experiment with MDA-MB-231 it was > 100 µM (inactive); with NCI-H23 it was 5.93 µM (inactive); in the experiment on OVCAR-5, > 100 µM (inactive); with OVCAR-8, 17.3 µM (inactive). For the same compound, the GI50 is 5.07 µM (inactive) in the experiment with RPMI-8226; > 100 µM (inactive) in the experiment with SF-539; > 100 µM (inactive) in the experiment on SK-MEL-28; > 100 µM (inactive) in the experiment on SK-MEL-2; > 100 µM (inactive) with SNB-19; 17.8 µM (inactive) in the experiment with SR. Besides, the GI50 in the experiment with SW-620 and with TK-10 was > 100 µM (inactive) each time.

For `Cc1ccc(O)c(-c2cc(-c3cccc(Br)c3)on2)c1`, the GI50 was 68.9 µM (inactive) with A498; 29.4 µM (inactive) in the experiment on A549; 26.9 µM (inactive) in the experiment on CCRF-CEM; 20 µM (inactive) in the experiment on HCT-116; 22.2 µM (inactive) with HOP-92; 20.3 µM (inactive) in the experiment with KM12. For the same compound, the GI50 is 36.8 µM (inactive) in the experiment with M14; 13.2 µM (inactive) with MCF7; 30.1 µM (inactive) in the experiment with MDA-MB-231; 37.1 µM (inactive) in the experiment with NCI-H23; 35.8 µM (inactive) in the experiment with OVCAR-5; 25.8 µM (inactive) in the experiment with OVCAR-8. The GI50 was 25.2 µM (inactive) in the experiment with RPMI-8226; 28.8 µM (inactive) with SF-539; 23.8 µM (inactive) in the experiment with SK-MEL-28; 21.5 µM (inactive) in the experiment on SK-MEL-2; 39.3 µM (inactive) in the experiment on SNB-19; 25.1 µM (inactive) with SR. In addition, the GI50 with SW-620 is 19.8 µM (inactive); in the experiment on TK-10, 21.9 µM (inactive).

For `O=C1/C(=C/c2ccc(O)cc2)CC/C1=C\c1ccc(O)cc1`, the GI50 was > 33 µM (inactive) with A498; > 95.1 µM (inactive) with A549; 1.52 µM (inactive) with CCRF-CEM; > 100 µM (inactive) in the experiment on HCT-116; > 68.9 µM (inactive) in the experiment on HOP-92; > 100 µM (inactive) with KM12. Also, the GI50 is > 100 µM (inactive) in the experiment on M14; > 100 µM (inactive) in the experiment with MCF7; > 100 µM (inactive) in the experiment with MDA-MB-231; > 100 µM (inactive) in the experiment with NCI-H23; > 100 µM (inactive) in the experiment with OVCAR-5; > 81.5 µM (inactive) in the experiment with OVCAR-8. For the same compound, the GI50 is 49.3 µM (inactive) in the experiment on RPMI-8226; 22.6 µM (inactive) in the experiment on SF-539; > 100 µM (inactive) in the experiment with SK-MEL-28; > 100 µM (inactive) with SK-MEL-2; > 87.1 µM (inactive) with SNB-19; 3.37 µM (inactive) with SR. In addition, the GI50 in the experiment on SW-620 and with TK-10 was > 100 µM (inactive) throughout.
